From patent US9394295B2, “Antibacterial homopiperidinyl substituted 3,4-dihydro-1H-[1,8]naphthyridinones” (Janssen Sciences Ireland UC, priority 2011, dated 2016) come the findings set out here.

For data set [1], the target named is T1, S. aureus ATCC 29213 FabI (Staphylococcus aureus, UniProt Q6GI75).
T1 sequence (Q6GI75 1-256): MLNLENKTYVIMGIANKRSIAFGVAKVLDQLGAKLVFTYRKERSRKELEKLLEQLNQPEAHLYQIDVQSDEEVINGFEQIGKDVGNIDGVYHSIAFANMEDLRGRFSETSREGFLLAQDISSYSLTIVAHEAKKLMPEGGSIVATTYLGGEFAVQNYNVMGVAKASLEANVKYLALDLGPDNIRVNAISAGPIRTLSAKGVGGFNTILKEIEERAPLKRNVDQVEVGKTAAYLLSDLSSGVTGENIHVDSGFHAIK
Kind of data set: Staphylococcus aureus FabI enzyme inhibition assay. In kind it is biochemical. Conditions: 30 minutes at room temperature, NADH consumption. The method, then: FabI enzyme inhibition assays were carried out in half-area, 384-well microtitre plates. Compounds were evaluated in 40-μl assay mixtures containing 100 mM NaADA, pH 6.5 (ADA=N-[2-acetamido]-2iminodiacetic acid), 250 μM crotonoyl-CoA, 625 μM NADH and 50 μg/ml S. aureus ATCC 29213 FabI Inhibitors were typically varied over the range of 50 to 0.39 μM. The reaction mixtures were incubated for 30 minutes at room temperature and the reaction was stopped by adding 200 mM Tris buffer (pH 9.0) to create a pH-shift. The consumption of NADH was monitored by measuring the change in absorbance at […]. By comparing sample readings to those of negative (absence of compound) and positive (absence of enzyme) controls, the percent inhibition of enzymatic activity of the compounds was determined. A best-fit curve is fitted by a minimum of squares method. From this an IC50-value (expressed in μg/ml), resulting in 50% inhibition of enzymatic activity, was obtained.

In data set [2] the test system is Staphylococcus aureus ATCC 29213. As to the kind of experiment: Antibacterial susceptibility testing: IC90 determination (STA). Conditions: ATCC29213, S. aureus ATCC 29213, 90% inhibitory concentration for bacterial growth, read-out: STA (361.159) IC90. It counts as cell-based. The method, then:
(§1) The following bacteria were used: Staphylococcus aureus ATCC 29213, methicillin-resistant Staphylococcus aureus (MRSA) ATCC 700788 and Escherichia coli ATCC 35218. The bacteria used in this study were grown overnight in flasks containing 100 ml Mueller-Hinton broth (Difco cat. nr. 0757-17) in sterile de-ionized water, with shaking, at 37° C. Stocks were store at −70° C. until use.
(§2) Bacteria were incubated on a tryptic soy agar plate containing 5% sheep blood (Becton Dickinson cat. nr. 254053) for 18-24 hours at 35° C. in aerobic conditions (first passage). For the second passage, fresh Mueller-Hinton broth is inoculated with 5-10 colonies and grown overnight at 35° C. until turbidity (reaching log-phase) in aerobic conditions is reached. The bacterial suspension is then adjusted to 0.5 McFarland density and further diluted 1:100 in Mueller Hinton broth medium. This is used as inoculum.
(§3) MIC assays were performed by the broth microdilution method in a 96-well format (flat-bottom microtitre plates) with a final volume of 0.1 ml Mueller Hinton broth containing two-fold serial dilutions of compounds and inoculated with 5×10^5 CFU/ml of bacteria (standard inoculum size according to CLSI guidelines). Inhibitors are typically varied over the range of 63 to 0.49 μM. The final DMSO concentration in the assay was 1.25% (maximum tolerable DMSO concentration=6%). In the assays where the effect of human serum on the activity of the compounds against S. aureus was tested, human serum was added at a final concentration of 10%. The plates were incubated at 35° C. for 16-20 hours. At the end of incubation the bacterial growth was quantified fluorometrically. For this, resazurin was added to all wells and the plates were re-incubated. The incubation time is dependent on the type of bacteria. A change in color from blue to pink indicated the growth of bacteria. The fluorescence was read in computer-controlled fluorometer (Fluoroskan Ascent FL, Labsystems) at an excitation wavelength 540 nm and an emission wavelength of 590 nm. The % growth inhibition achieved by the compounds was calculated according to standard methods. The IC90 (expressed in μg/ml) was defined as the 90% inhibitory concentration for bacterial growth. A panel of reference compounds were simultaneously tested for QC approval.

Data set [3] concerns S. aureus. As to the kind of experiment: Antibacterial susceptibility testing: IC90 determination with 10% human serum (STA + 10% HS). In kind it is cell-based. Conditions: Staphylococcus aureus; S. aureus with human serum at final concentration of 10%; read-out: STA + 10% HS (361.169) IC90. The method, then: as §1, §2, §3
The results are depicted in the table D2 below (STA+10% HS).

Data set [4] is described as follows: Thermodynamic solubility / solubility in aqueous solution. In kind it is physicochemical. The settings on record: thermodynamic from solid, 4 days at ambient temperature. The method, then: The pH solubility profiling was carried out at ambient temperature for a period of 4 days. A saturation solubility study was carried out in order to determine maximum solubility in a particular buffer solution. The compound was added to respective buffer solution until saturation point is reached. This was followed by shaking the flask for 4 days at ambient temperature. After 4 days, the solutions were filtered and injected on UPLC and the concentration was determined using a generic HPLC method.

Data set [5] concerns S. aureus ATCC 29213. Kind of data set: MIC broth microdilution (CLSI), S. aureus ATCC 29213. In kind it is cell-based. Conditions: Staphylococcus aureus, ATCC 29213 / MSSA, reference strain MSSA. As to the method:
(§4) Minimum Inhibitory Concentrations (MICs) were determined in accordance with the Clinical and Laboratory Standards Institute (CLSI) methodology against aerobic bacteria (CLSI M07-A8) (see Clinical and Laboratory Standards Institute. 2009. Methods for dilution antimicrobial susceptibility tests for bacteria that grow aerobically. CLSI document M07-A8, Vol. 29, No. 2.) by the broth microdilution method with cation-adjusted Mueller-Hinton broth (CA-MHB) medium for the majority of organisms, except for Haemophilus influenza, where Haemophilis test medium (HTM) broth was used. Descriptions of the individual organisms can be found in the table. Where possible, ATCC standard strains were tested.
(§5) The inoculum density for the susceptibility testing was standardized to give a final inoculum of approximately 5×10^5 CFU/mL.
(§6) Stock solutions of the compounds were prepared in DMSO at concentrations of 1 mg/mL. Linezolid was prepared in DMSO at a concentration of 2 mg/mL. Stock solutions of all compounds were diluted into CA-MHB to give a range of two-fold dilutions, depending upon the sensitivity of the organism being tested.
A general note: Dilution methods test growth across graded concentrations, often in twofold steps.

Data set [6] has as its system S. aureus NRS119. Kind of data set: MIC broth microdilution (CLSI), S. aureus NRS119. It counts as cell-based. Conditions: Staphylococcus aureus, LZD-R. As to the method:
as §4, §5, §6

Data set [7] concerns S. aureus NRS121. As to the kind of experiment: MIC broth microdilution (CLSI), S. aureus NRS121. It counts as cell-based. Conditions: Staphylococcus aureus, LZD-R. As to the method:
as §4, §5, §6

Data set [8] relates to E. coli ATCC 25922. Kind of data set: MIC broth microdilution (CLSI), E. coli ATCC 25922. It counts as cell-based. The settings on record: Escherichia coli, ATCC25922. As to the method:
as §4, §5, §6

[9] abbreviates: aqueous buffer, Buffer pH 2, read-out: Solubility, Buffer pH 2.
Where [10] appears, read: aqueous buffer, Buffer pH 4, read-out: Solubility, Buffer pH 4.
[11] abbreviates: aqueous buffer, Buffer pH 7.4, read-out: Solubility, Buffer pH 7.4.
Setting [12] is: aqueous with cosolvent or surfactant or cyclodextrin, 10% HP-β-CD buffer pH 4, read-out: Solubility, 10% HP-β-CD buffer pH 4.
The mark [13] stands for this setting: aqueous with cosolvent or surfactant or cyclodextrin, 10% HP-β-CD buffer pH 7.4, read-out: Solubility, 10% HP-β-CD buffer pH 7.4.
Setting [14] is: aqueous with cosolvent or surfactant or cyclodextrin, 20% HP-β-CD buffer pH 4, read-out: Solubility, 20% HP-β-CD buffer pH 4.
Where [15] appears, read: aqueous with cosolvent or surfactant or cyclodextrin, 20% HP-β-CD buffer pH 7.4, read-out: Solubility, 20% HP-β-CD buffer pH 7.4.

Values after ≈ are worked out from the molar mass of the structure shown. Like-named read-outs stand apart in the source and are kept apart here. A value given as a limit tells only on which side of the number the result lay.

One may read the IC50 as the concentration that inhibits the measured activity by half. For orientation: IC90 means the point of the concentration-response curve where the effect stands at 90%. For orientation: solubility means how much of the substance goes into solution per volume. For orientation: MIC90 means an inhibitory concentration at the 90% level, which refers to growth in some studies and to a panel of isolates in others. In turn, `O=C1CCc2cc(/C=C/C(=O)N3CCC=C(c4ccccc4)CC3)cnc2N1` [Co. No. 2] showed an IC50 in data set [1] of 0.884 µM. Further, the IC90 in data set [2] was determined as 0.14 mg/L (≈ 0.375 µM); in data set [3], 0.33 mg/L. Moreover, the solubility at 4 days in data set [4] (setting [9]) was 0.002 mg/mL (≈ 5.36 µM); in data set [4] (setting [10]), below 0.002 mg/mL; in data set [4] (setting [11]) it was 0.003 mg/mL (≈ 8.03 µM); in data set [4] (setting [12]), 1.15 mg/mL (≈ 3080 µM); in data set [4] (setting [13]), 1.08 mg/mL (≈ 2900 µM); in data set [4] (setting [14]), 0.98 mg/mL (≈ 2620 µM). In data set [4] (setting [15]), the solubility at 4 days was determined as 1.05 mg/mL (≈ 2820 µM). Moreover, the MIC90 in data set [5] was 0.06 mg/L (≈ 0.161 µM); in data set [6], 0.125 mg/L (≈ 0.335 µM); in data set [7], 0.125 mg/L (≈ 0.335 µM); in data set [8], above 32 mg/L.

As to `COc1ccc(F)cc1C1=CCCN(C(=O)/C=C/c2cnc3c(c2)CCC(=O)N3)CC1` [Co. No. 27], the 50% inhibitory concentration (IC50) in data set [1] was 1.07 µM. The IC90 in data set [2] came out at 0.1 mg/L (≈ 0.237 µM); in data set [3], 0.33 mg/L. In addition, the solubility at 4 days is below 0.01 mg/mL in data set [4] (setting [9]); below 0.01 mg/mL in data set [4] (setting [10]); below 0.01 mg/mL in data set [4] (setting [11]); 0.22 mg/mL (≈ 522 µM) in data set [4] (setting [12]); 0.25 mg/mL (≈ 593 µM) in data set [4] (setting [13]); 0.44 mg/mL (≈ 1040 µM) in data set [4] (setting [14]). Further, the solubility at 4 days in data set [4] (setting [15]) came to 0.59 mg/mL (≈ 1400 µM). For the same molecule, the MIC90 in data set [5] is 0.06 mg/L (≈ 0.142 µM); in data set [6], 0.06 mg/L (≈ 0.142 µM); in data set [7], 0.06 mg/L (≈ 0.142 µM); in data set [8] it was above 8 mg/L.
